From patent publication US20040266732A1, “Therapeutic agents, methods, and treatments” (priority 2002, published 2004)

Key:
Assay in all cases: NCI 60 cell-line test
Type in all cases: cell-based, human
HOP-62 = HOP-62 (Non-Small Cell Lung Cancer)
Procedure: (§1) Methodology: The NCI conducted a test of the MT103 drug against 60 human cell lines, with a minimum of five concentrations of MT103 at 10-fold dilutions. A 48 hour continuous drug exposure was used, and a sulforhodamine B (SRB) protein assay was used to estimate cell viability and growth. The human tumor cell lines of the cancer screening panel were grown in RPMI 1640 medium containing 5% fetal bovine serum and 2 mM L-glutamine. Cells were inoculated into 96 well microtiter plates in 100 μL at plating densities ranging from 5,000 to 40,000 cells/well depending on the doubling time of individual cell lines. After cell inoculation, the microtiter plates are incubated at 37° C., 5% CO2, 95% air, and 100% relative humidity for 24 h prior to addition of experimental drugs.
(§2) After 24 h, two plates of each cell line were fixed in situ with TCA, to represent a measurement of the cell population for each cell line at the time of drug addition (Tz). MT103 was solubilized in dimethyl sulfoxide at 400-fold the desired final maximum test concentration and stored frozen prior to use. At the time of drug addition, an aliquot of frozen concentrate was thawed and diluted to twice the desired final maximum test concentration with complete medium containing 50 μg/ml gentamicin. Additional four, 10-fold or ½ log serial dilutions were made to provide a total of five drug concentrations plus control. Aliquots of 100 μl of these different drug dilutions were added to the appropriate microtiter wells already containing 100 μl of medium, resulting in the required final drug concentrations.
(§3) Following drug addition, the plates were incubated for an additional 48 h at 37° C., 5% CO2, 95% air, and 100% relative humidity. For adherent cells, the assay was terminated by the addition of cold TCA. Cells were fixed in situ by the gentle addition of 50 μl of cold 50% (w/v) TCA (final concentration, 10% TCA) and incubated for 60 minutes at 4° C. The supernatant was discarded, and the plates were washed five times with tap water and air dried. Sulforhodamine B (SRB) solution (100 μl) at 0.4% (w/v) in 1% acetic acid was added to each well, and plates were incubated for 10 minutes at room temperature. After staining, unbound dye was removed by washing five times with 1% acetic acid and the plates were air-dried. Bound stain was subsequently solubilized with 10 mM trizma base, and the absorbance was read on an automated plate reader at a wavelength of 515 nm. For suspension cells, the methodology was the same except that the assay was terminated by fixing settled cells at the bottom of the wells by gently adding 50 μl of 80% TCA (final concentration, 16% TCA). Using the seven absorbance measurements (time zero, (Tz), control growth, (C), and test growth in the presence of drug at the five concentration levels (Ti)), the percentage growth was calculated at each of the drug concentrations levels. Percentage growth inhibition was calculated as:
(§4) [(Ti-Tz)/(C-Tz)]×100 for concentrations for which Ti>/=Tz
(§5) [(Ti-Tz)/Tz]×100 for concentrations for which Ti<Tz.
(§6) Three dose response parameters were calculated for each experimental agent. Growth inhibition of 50% (GI50) was calculated from [(Ti-Tz)/(C-Tz)]×100=50, which is the drug concentration resulting in a 50% reduction in the net protein increase (as measured by SRB staining) in control cells during the drug incubation. The drug concentration resulting in total growth inhibition (TGI) was calculated from Ti=Tz. The LC50 (concentration of drug resulting in a 50% reduction in the measured protein at the end of the drug treatment as compared to that at the beginning) indicating a net loss of cells following treatment was calculated from [(Ti-Tz)/Tz]×100=−50. Values were calculated for each of these three parameters if the level of activity is reached; however, if the effect was not reached or was exceeded, the value for that parameter was expressed as greater or less than the maximum or minimum concentration tested.

OVCAR-5 = OVCAR-5 (Ovarian Cancer)
Procedure: as §1, §2, §3, §4, §5, §6

SN12C = SN12C (Renal Cancer)
Procedure: as §1, §2, §3, §4, §5, §6

MDA-N = MDA-N (Breast Cancer)
Procedure: as §1, §2, §3, §4, §5, §6

OVCAR-3 = OVCAR-3 (Ovarian Cancer)
Procedure: as §1, §2, §3, §4, §5, §6

OVCAR-4 = OVCAR-4 (Ovarian Cancer)
Procedure: as §1, §2, §3, §4, §5, §6

IGROV1 = IGROV1 (Ovarian Cancer)
Procedure: as §1, §2, §3, §4, §5, §6

HL-60 (TB) = HL-60 (TB) (Leukemia)
Procedure: as §1, §2, §3, §4, §5, §6

DU-145 = DU-145 (Prostate Cancer)
Procedure: as §1, §2, §3, §4, §5, §6

HT29 = HT29 (Colon Cancer)
Procedure: as §1, §2, §3, §4, §5, §6

K-562 = K-562 (Leukemia)
Procedure: as §1, §2, §3, §4, §5, §6

HOP-92 = tested on: HOP-92
Procedure: as §1, §2, §3, §4, §5, §6

SK-MEL-28 = SK-MEL-28 (Melanoma)
Procedure: as §1, §2, §3, §4, §5, §6

U251 = U251 (CNS Cancer)
Procedure: as §1, §2, §3, §4, §5, §6

SR = SR (Leukemia)
Procedure: as §1, §2, §3, §4, §5, §6

[1] = read-out: LC50 (the source's name)

CC1(C)C2CC[C@@]1(CS(=O)(=O)N(C1CCCCC1)C1CCCCC1)C(O)C2 (stereo partly shown) [MT103]
TGI (HOP-62): >1.00E−04
IC50 (HOP-62; read-out: G150): 57.5 µM
CC50 (HOP-62; [1]): > 100 µM
TGI (OVCAR-5): 5.70E−05
IC50 (OVCAR-5; read-out: G150): 23.7 µM
CC50 (OVCAR-5; [1]): > 100 µM
TGI (SN12C): >1.00E−04
IC50 (SN12C; read-out: G150): 33 µM
CC50 (SN12C; [1]): > 100 µM
TGI (MDA-N): >1.00E−04
IC50 (MDA-N; read-out: G150): 27.1 µM
CC50 (MDA-N; [1]): > 100 µM
TGI (OVCAR-3): 6.30E−05
IC50 (OVCAR-3; read-out: G150): 23 µM
CC50 (OVCAR-3; [1]): > 100 µM
TGI (OVCAR-4): >1.00E−04
IC50 (OVCAR-4; read-out: G150): 30.2 µM
CC50 (OVCAR-4; [1]): > 100 µM
TGI (IGROV1): >1.00E−04
IC50 (IGROV1; read-out: G150): 34.8 µM
CC50 (IGROV1; [1]): > 100 µM
TGI (HL-60 (TB)): 8.33E−05
IC50 (HL-60 (TB); read-out: G150): 19 µM
CC50 (HL-60 (TB); [1]): > 100 µM
TGI (DU-145): >1.00E−04
IC50 (DU-145; read-out: G150): 30.5 µM
CC50 (DU-145; [1]): > 100 µM
TGI (HT29): >1.00E−04
IC50 (HT29; read-out: G150): 23.5 µM
CC50 (HT29; [1]): > 100 µM
TGI (K-562): >1.00E−04
IC50 (K-562; read-out: G150): 26.8 µM
CC50 (K-562; [1]): > 100 µM
TGI (HOP-92; HOP-92 (Non-Small Cell Lung Cancer)): 3.16E−05
IC50 (HOP-92; HOP-92 (Non-Small Cell Lung Cancer), read-out: G150): 2.75 µM
CC50 (HOP-92; HOP-92 (Non-Small Cell Lung Cancer), read-out: LC50 (the source's name)): > 100 µM
−logGI50 value (HOP-92; HOP-92, as tested by the NCI, FIG. 1): 5.6
TGI (SK-MEL-28): >1.00E−04
IC50 (SK-MEL-28; read-out: G150): 50.7 µM
CC50 (SK-MEL-28; [1]): > 100 µM
TGI (U251): >1.00E−04
IC50 (U251; read-out: G150): 28.7 µM
CC50 (U251; [1]): > 100 µM
TGI (SR): >1.00E−04
IC50 (SR; read-out: G150): 23.8 µM
CC50 (SR; [1]): > 100 µM
